The supplement of paper PMC10307832

What was measured:
Test in all cases: relative viability (nuclei count vs DMSO), 5 days (fraction); higher = more cells survive
Bemcentinib + Pemetrexed = compound: Nc1nc(Nc2ccc3c(c2)CC[C@@H](N2CCCC2)CC3)nn1-c1cc2c(nn1)-c1ccccc1CCC2 [Bemcentinib] + Nc1nc2[nH]cc(CCc3ccc(C(=O)N[C@@H](CCC(=O)O)C(=O)O)cc3)c2c(=O)[nH]1 [Pemetrexed] (partner 0.2 µM)
In short: (§1)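 Each reported value is a median over duplicate plates. It expresses relative viability: treated-well nuclei count divided by vehicle-well nuclei count. Lung cancer cell lines in 1536-well plates were dosed by pin tool a day after seeding, alone with one drug or with a fixed anchor-drug dose plus five library-drug doses (not always all listed) in √10 steps, and nuclei were counted after 5 days.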

Axitinib + Palbociclib = compound: CNC(=O)c1ccccc1Sc1ccc2c(/C=C/c3ccccn3)n[nH]c2c1 [Axitinib] + CC(=O)c1c(C)c2cnc(Nc3ccc(N4CCNCC4)cn3)nc2n(C2CCCC2)c1=O [Palbociclib] (partner 0.5 µM)
In short: as §1

[1] = compound: CC1=CC=C(C=C1)C(=O)CN2C3=C(CCCC3)SC2=N [Pifithrin_alpha] + C[C@]1(O)C[C@@H](c2nc(-c3ccc4ccc(-c5ccccc5)nc4c3)c3c(N)nccn32)C1 [Linsitinib] (partner 1 µM)
In short: as §1

[2] = compound: CC1=CC=C(C=C1)C(=O)CN2C3=C(CCCC3)SC2=N [Pifithrin_alpha] + CC(C)C[C@H](NC(=O)[C@H](Cc1ccccc1)NC(=O)c1cnccn1)B(O)O [Bortezomib] (partner 0.002 µM)
In short: as §1

Cell Line | relative viability (Bemcentinib + Pemetrexed; first compound 0.04 µM) | relative viability (Bemcentinib + Pemetrexed; first compound 0.1265 µM) | relative viability (Bemcentinib + Pemetrexed; first compound 0.4 µM) | relative viability (Bemcentinib + Pemetrexed; first compound 1.265 µM) | relative viability (Bemcentinib + Pemetrexed; first compound 4 µM) | relative viability (Axitinib + Palbociclib; first compound 0.005 µM) | relative viability (Axitinib + Palbociclib; first compound 0.01581 µM) | relative viability (Axitinib + Palbociclib; first compound 0.05 µM) | relative viability (Axitinib + Palbociclib; first compound 0.1581 µM) | relative viability (Axitinib + Palbociclib; first compound 0.5 µM) | relative viability ([1]; first compound 1 µM) | relative viability ([1]; first compound 3.162 µM) | relative viability ([1]; first compound 10 µM) | relative viability ([1]; first compound 31.62 µM) | relative viability ([1]; first compound 100 µM) | relative viability ([2]; first compound 1 µM) | relative viability ([2]; first compound 3.162 µM) | relative viability ([2]; first compound 10 µM) | relative viability ([2]; first compound 31.62 µM) | relative viability ([2]; first compound 100 µM)
LOU-NH91 | 0.408 | 0.369 | 0.4 | 0.45 | 0.376 | 0.564 | 0.568 | 0.537 | 0.444 | 0.527 | 0.789 | 0.849 | 0.828 | 0.753 | 0.846 | 0.409 | 0.475 | 0.445 | 0.414 | 0.503
NCI-H647 | 0.175 | 0.164 | 0.199 | 0.156 | 0.152 | 0.554 | 0.375 | 0.475 | 0.395 | 0.421 | 1.27 | 1.2 | 1.02 | – | 0.748 | 0.992 | 0.966 | 0.706 | – | 0.736
NCI-H1915 | 0.48 | 0.533 | 0.538 | 0.489 | 0.443 | 0.526 | 0.534 | 0.512 | 0.524 | 0.566 | 1.01 | 1.08 | 1.08 | – | 1.14 | 0.947 | 1.15 | 0.904 | – | 1.35
NCI-H1792 | 0.918 | 0.988 | 1.06 | 0.68 | 0.85 | 0.654 | 0.635 | 0.592 | 0.564 | 0.654 | 0.563 | 0.498 | 0.378 | 0.422 | 0.486 | 0.719 | 0.847 | 0.666 | 0.582 | 0.795
HARA | 0.236 | 0.243 | 0.241 | 0.245 | 0.196 | 0.241 | 0.334 | 0.216 | 0.221 | 0.247 | 0.988 | 1.02 | 0.9 | 0.542 | 0.857 | 1.25 | 1.13 | 1.2 | 0.878 | 1.26
NCI-H2347 | 0.558 | 0.457 | 0.428 | 0.434 | 0.437 | 0.42 | 0.411 | 0.436 | 0.434 | 0.362 | 0.967 | 0.913 | 0.907 | 0.635 | 0.95 | 0.695 | – | 0.855 | 0.814 | 0.874
